In US20070275936A1, “Formulations and Treatment Methods” (priority 1998, published 2007):
“Also recorded” adds a separate entry of the source.

How the values were obtained:
Plasmodium falciparum = assay: Inhibition of parasite growth in culture; format: cell-based
Method: The effect of Epi (16α-bromo-epiandrosterone) on parasite (Plasmodium falciparum) growth was shown. EPI was active at a concentration of 1 μM.
Parasitemias were determined by standard methods (microscopic inspection of at least 500 cells, stained with Diff-Quick™ (Baxter). Parasites were cultured under standard conditions in RPMI-1640 supplemented with Hepes/Glucose (10 mM), glutamine (0.3 g/liter) and 10% human plasma. The hematocrit was 1%.

[1] = Pharmacokinetics of BrEA after subcutaneous dose in rabbits; format: in vivo
Method: The nonaqueous BrEA formulation of example 1 was administered as a single subcutaneous dose to rabbits. […] The circulating half-life of the drug in the plasma was about twelve hours.
A pharmacokinetic analysis of ^14C BrEA was conducted in New Zealand White rabbits. Twenty μCi of ^14C 16α-bromo-3-beta-hydroxy-5α-[4-^14C]-androstan-17-one (50 mCi/mmole) plus 1 mg/kg unlabeled BrEA was administered to each of three New Zealand White rabbits as a subcutaneous injection in the scapular region using an injection volume of 1 mL/kg. The drug was formulated in 25% polyethylene glycol 300, 12.5% absolute ethanol, 5% benzyl benzoate, and qs with propylene glycol. Blood samples were taken at 0.5, 1, 2, 4, 8, 12, 24 hours for all three animals, and at 48 hours for two of the animals. Twenty-four and 48 hours after administration, one and two animals respectively, were sacrificed, and the following organs/tissues were collected: brain, heart, kidneys, liver, lungs, skeletal muscle, spleen, and injection site muscle and skin. In addition to the organs and tissues, urine and feces were collected as well as the cage wash.
The average percentages of the administered dose in whole blood was calculated by multiplying the concentration of drug in whole blood by the assumed volume of blood in the animals, 200 mL. The amount of drug in the blood reaches a maximum at around 8 hours, and a small amount was still evident at 48 hours.

[2] = Animal 201, 24 hours, 1 mg/kg s.c.
[3] = Animal 301, 48 hours, 1 mg/kg s.c.
[4] = Animal 301, 48 hours, sample wt. 6 g
[5] = Animal 302, 48 hours, 1 mg/kg s.c.

In the case of `C[C@]12CC[C@H](O)C[C@@H]1CC[C@@H]1[C@@H]2CC[C@]2(C)C(=O)[C@H](Br)C[C@@H]12` [BrEA, 16α-bromo-3β-hydroxy-5α-androstane-17-one], the Parasitemia after treatment (Plasmodium falciparum; 50 nM, 24 hrs, Time 0 2%, control + DMSO 8.80%) is reported as 9.90%, the Parasitemia after treatment (Plasmodium falciparum; 50 nM, 48 hrs, Time 0 2%, control + DMSO 11%) is reported as 9.20% and the Parasitemia after treatment (Plasmodium falciparum; 50 nM, 72 hrs, Time 0 2%, control + DMSO 8%) is reported as 8.30%. For the same compound, the Parasitemia after treatment (Plasmodium falciparum; 1 μM, 24 hrs, Time 0 2%, control + DMSO 8.80%) was 5.80%, the Parasitemia after treatment (Plasmodium falciparum; 1 μM, 24 hrs, Time 0 5%, control + DMSO 5.40%) was 5.70% and the Parasitemia after treatment (Plasmodium falciparum; 1 μM, 48 hrs, Time 0 2%, control + DMSO 11%) was 6.10%. It also gave a Parasitemia after treatment (Plasmodium falciparum; 1 μM, 48 hrs, Time 0 5%, control + DMSO 3.10%) of 5.50%, a Parasitemia after treatment (Plasmodium falciparum; 1 μM, 72 hrs, Time 0 2%, control + DMSO 8%) of 2.10% and a Parasitemia after treatment (Plasmodium falciparum; 1 μM, 72 hrs, Time 0 5%, control + DMSO 5.20%) of 1.60%. The Parasitemia after treatment (Plasmodium falciparum; 2.5 μM, 24 hrs, Time 0 2%, control + DMSO 8.80%) was 7.30%, the Parasitemia after treatment (Plasmodium falciparum; 2.5 μM, 48 hrs, Time 0 2%, control + DMSO 11%) was 5.80% and the Parasitemia after treatment (Plasmodium falciparum; 2.5 μM, 72 hrs, Time 0 2%, control + DMSO 8%) was 3.20%. The Parasitemia after treatment (Plasmodium falciparum; 5 μM, 24 hrs, Time 0 2%, control + DMSO 8.80%) was 5.40%, the Parasitemia after treatment (Plasmodium falciparum; 5 μM, 48 hrs, Time 0 2%, control + DMSO 11%) was 6% and the Parasitemia after treatment (Plasmodium falciparum; 5 μM, 72 hrs, Time 0 2%, control + DMSO 8%) was 1.80%. The Parasitemia after treatment (Plasmodium falciparum; 10 μM, 24 hrs, Time 0 2%, control + DMSO 8.80%) was 4.20%, the Parasitemia after treatment (Plasmodium falciparum; 10 μM, 24 hrs, Time 0 5%, control + DMSO 5.40%) was 5.60% and the Parasitemia after treatment (Plasmodium falciparum; 10 μM, 48 hrs, Time 0 2%, control + DMSO 11%) was 3%. For the same compound, the Parasitemia after treatment (Plasmodium falciparum; 10 μM, 48 hrs, Time 0 5%, control + DMSO 3.10%) was 0.90%, the Parasitemia after treatment (Plasmodium falciparum; 10 μM, 72 hrs, Time 0 2%, control + DMSO 8%) was 0% and the Parasitemia after treatment (Plasmodium falciparum; 10 μM, 72 hrs, Time 0 5%, control + DMSO 5.20%) was 0%. For the same compound, the Parasitemia after treatment (Plasmodium falciparum; 50 μM, 24 hrs, Time 0 2%, control + DMSO 8.80%) was 0%, the Parasitemia after treatment (Plasmodium falciparum; 50 μM, 48 hrs, Time 0 2%, control + DMSO 11%) was 0% and the Parasitemia after treatment (Plasmodium falciparum; 50 μM, 72 hrs, Time 0 2%, control + DMSO 8%) was 0%. For the same compound, the Parasitemia after treatment (Plasmodium falciparum; 100 μM, 24 hrs, Time 0 5%, control + DMSO 5.40%) was 0%, the Parasitemia after treatment (Plasmodium falciparum; 100 μM, 48 hrs, Time 0 5%, control + DMSO 3.10%) was 0% and the Parasitemia after treatment (Plasmodium falciparum; 100 μM, 72 hrs, Time 0 5%, control + DMSO 5.20%) was 0%. The Parasitemia after treatment (Plasmodium falciparum; 500 μM, 24 hrs, Time 0 5%, control + DMSO 5.40%) was 0%, the Parasitemia after treatment (Plasmodium falciparum; 500 μM, 48 hrs, Time 0 5%, control + DMSO 3.10%) was 0% and the Parasitemia after treatment (Plasmodium falciparum; 500 μM, 72 hrs, Time 0 5%, control + DMSO 5.20%) was 0%. The “concentration at which active on parasite growth” value (Plasmodium falciparum; P. falciparum culture) was 1 µM, the “Percentage of Drug in Organs: Brain” value [1, 2] was 0.005% and the “Percentage of Drug in Organs: Heart” value [1, 2] was 0.008%. The “Percentage of Drug in Organs: Kidneys” value [1, 2] was 0.155%, the “Percentage of Drug in Organs: Liver” value [1, 2] was 0.76% and the “Percentage of Drug in Organs: Lungs” value [1, 2] was 0.029%. For the same compound, the “Percentage of Drug in Organs: Spleen” value [1, 2] was 0.002%, the “Percentage of Drug in Organs: Skeletal muscle” value (“Percentage … Skeletal muscle” for short) ([1]; Animal 201, 24 hours, sample wt. 3.8 g) was 0.002% and the “Percentage of Drug in Organs: Skin” value ([1]; Animal 201, 24 hours, sample wt. 8 g) was 0.008%. The “Percentage of Drug in Organs: Brain” value [1, 3] was 0.002%, the “Percentage of Drug in Organs: Heart” value [1, 3] was 0.003% and the “Percentage of Drug in Organs: Kidneys” value [1, 3] was 0.055%. The “Percentage of Drug in Organs: Liver” value [1, 3] was 0.145%, the “Percentage of Drug in Organs: Lungs” value [1, 3] was 0.019% and the “Percentage of Drug in Organs: Spleen” value [1, 3] was 0%. The “Percentage … Skeletal muscle” value [1, 4] was 0%, the “Percentage of Drug in Organs: Skin” value [1, 4] was 0.002% and the “Percentage of Drug in Organs: Brain” value [1, 5] was 0%. The “Percentage of Drug in Organs: Heart” value [1, 5] was 0.002%, the “Percentage of Drug in Organs: Kidneys” value [1, 5] was 0.050% and the “Percentage of Drug in Organs: Liver” value [1, 5] was 0.125%. For the same compound, the “Percentage of Drug in Organs: Lungs” value [1, 5] was 0.011%, the “Percentage of Drug in Organs: Spleen” value [1, 5] was 0% and the “Percentage … Skeletal muscle” value ([1]; Animal 302, 48 hours, sample wt. 5 g) was 0%. For the same compound, the “Percentage of Drug in Organs: Skin” value ([1]; Animal 302, 48 hours, sample wt. 9 g) was 0.004%, the “time of maximum amount of drug in whole blood” value ([1]; rabbits, 1 mg/kg s.c.) was “around 8 hours” and the “drug in the liver” value ([1]; rabbits, 1 mg/kg s.c., 24 hours) was “approximately 0.8 % of the injected dose”. For the same compound, the “drug in the liver” value ([1]; rabbits, 1 mg/kg s.c., 48 hours) was ~0.12 % of the injected dose, the “drug in the liver, average” value ([1]; rabbits, 1 mg/kg s.c., average printed after the 48 hours value) was 0.13% and the accumulation in organs ([1]; rabbits, s.c. dose) was “did not accumulate to a significant extent in any major organ; also recorded: did not accumulate to a significant degree in any of the organs”. For the same compound, the route of excretion ([1]; rabbits, s.c. dose) was “primarily excreted in the urine”, the “circulating half-life of the drug in the plasma” value ([1]; rabbits, single s.c. dose) was “about twelve” and the “maximum concentration in the plasma” value ([1]; rabbits, single s.c. dose, at eight to twelve hours post administration) was “about 1.2 % of the injected dose”. For the same compound, the “drug left the injection site” value ([1]; rabbits, single subcutaneous dose, formulation of example 1, within 24 hours) was “More than 90%”.
